± gives the standard deviation of the averaged measurements.
What was measured:
CAMPTOTHECIN [1] = compound: T1, CC[C@@]1(O)C(=O)OCc2c1cc1n(c2=O)Cc2cc3ccccc3nc2-1 [CAMPTOTHECIN]; assay: area under dose-response curve of surviving fraction (unscaled, Aref=0) (surviving fraction x log10(nM)); higher = more resistant; details: exposure time: 5 days; dose range 0.5-1000 nM
Outline: (§1)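 Each tumour cell line was screened three times in 384-well plates, receiving eight inhibitor concentrations from 0.5 to 1000 nM for five days. CellTiter-Glo luminescence gave viability, normalised to DMSO-only wells. Using the drc R package, surviving fractions were fitted with 3-parameter logistic dose-response curves, and the unscaled activity area over log10 dose (Aref = 0) was taken as the area under the curve.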

CARBOPLATIN [2] = compound: T2, O=C(O)C1(C(=O)O)CCC1.[NH2-].[NH2-].[Pt+2] [CARBOPLATIN]; assay: as above; details: exposure time: 5 days; dose range 0.5-1000 nM
Outline: as §1

GEFITINIB [3] = compound: T3, COc1cc2ncnc(Nc3ccc(F)c(Cl)c3)c2cc1OCCCN1CCOCC1 [GEFITINIB]; assay: as above; details: exposure time: 5 days; dose range 0.5-1000 nM
Outline: as §1

[4] = compound: CC(=O)c1c(C)c2cnc(Nc3ccc(N4CCNCC4)cn3)nc2n(C2CCCC2)c1=O; assay: as above; details: exposure time: 5 days; dose range 0.5-1000 nM
Outline: as §1

YM155 [5] = compound: T4, COCC[n+]1c2c(n(Cc3cnccn3)c1C)C(=O)c1ccccc1C2=O [YM155]; assay: as above; details: exposure time: 5 days; dose range 0.5-1000 nM
Outline: as §1

[6] = compound: CC(=O)NCC(=O)N1[C@@H]2CC[C@H]1c1ccc(Nc3ncc(C(F)(F)F)c(NC4CCC4)n3)cc12; assay: as above; details: exposure time: 5 days; dose range 0.5-1000 nM
Outline: as §1

PACLITAXEL [7] = compound: T5, CC(=O)O[C@H]1C(=O)[C@@]2(C)[C@H]([C@H](OC(=O)c3ccccc3)[C@]3(O)C[C@H](OC(=O)[C@H](O)[C@@H](NC(=O)c4ccccc4)c4ccccc4)C(C)=C1C3(C)C)[C@]1(OC(C)=O)CO[C@@H]1C[C@@H]2O [PACLITAXEL]; assay: as above; details: exposure time: 5 days; dose range 0.5-1000 nM
Outline: as §1

OSI-906 [8] = compound: T6, C[C@]1(O)C[C@@H](c2nc(-c3ccc4ccc(-c5ccccc5)nc4c3)c3c(N)nccn32)C1 [OSI-906]; assay: as above; details: exposure time: 5 days; dose range 0.5-1000 nM
Outline: as §1

CAMPTOTHECIN [9] = compound: T1, CAMPTOTHECIN; assay: surviving fraction relative to DMSO-only wells; higher = less growth inhibition; details: exposure time: 5 days
Outline: (§2)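 Inhibitors were tested at 0.5, 1, 5, 10, 50, 100, 500 and 1000 nM, applied continuously for five days beginning 24 hours after log-phase tumour cells were seeded at 250–500 per well in 384-well plates. CellTiter-Glo luminescence served as the viability measure, expressed as surviving fraction against the median of DMSO-only wells. Each line, screened three times, was kept only with replicate Pearson r >0.7 and median Z' >0.3.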

CARBOPLATIN [10] = compound: T2, CARBOPLATIN; assay: as above; details: exposure time: 5 days
Outline: as §2

GEFITINIB [11] = compound: T3, GEFITINIB; assay: as above; details: exposure time: 5 days
Outline: as §2

[12] = compound: CC(=O)c1c(C)c2cnc(Nc3ccc(N4CCNCC4)cn3)nc2n(C2CCCC2)c1=O; assay: as above; details: exposure time: 5 days
Outline: as §2

YM155 [13] = compound: T4, YM155; assay: as above; details: exposure time: 5 days
Outline: as §2

CELECOXIB = compound: Cc1ccc(-c2cc(C(F)(F)F)nn2-c2ccc(S(N)(=O)=O)cc2)cc1 [CELECOXIB]; assay: as above; details: exposure time: 5 days
Outline: as §2

[14] = compound: CC(=O)NCC(=O)N1[C@@H]2CC[C@H]1c1ccc(Nc3ncc(C(F)(F)F)c(NC4CCC4)n3)cc12; assay: as above; details: exposure time: 5 days
Outline: as §2

PACLITAXEL [15] = compound: T5, PACLITAXEL; assay: as above; details: exposure time: 5 days
Outline: as §2

OSI-906 [16] = compound: T6, OSI-906; assay: as above; details: exposure time: 5 days
Outline: as §2

With 22RV1 PROSTATE the “area under dose-response curve” value (CAMPTOTHECIN [1]) was 1.47, the “area under dose-response curve” value (CARBOPLATIN [2]) was 3.48 and the “area under dose-response curve” value (GEFITINIB [3]) was 3.34. For the same test system, the “area under dose-response curve” value [4] was 3.53, the “area under dose-response curve” value (YM155 [5]) was 1.58 and the “area under dose-response curve” value [6] was 2.6. The “area under dose-response curve” value (PACLITAXEL [7]) was 0.962, the “area under dose-response curve” value (OSI-906 [8]) was 3.1 and the surviving fraction (CAMPTOTHECIN [9]; 0.5 nM) was 0.938 ± 0.095. It also gave a surviving fraction (CAMPTOTHECIN [9]; 1 nM) of 0.957 ± 0.053, a surviving fraction (CAMPTOTHECIN [9]; 5 nM) of 0.586 ± 0.044 and a surviving fraction (CAMPTOTHECIN [9]; 10 nM) of 0.275 ± 0.022. The surviving fraction (CAMPTOTHECIN [9]; 50 nM) was 0.162 ± 0.16, the surviving fraction (CAMPTOTHECIN [9]; 100 nM) was 0.189 ± 0.22 and the surviving fraction (CAMPTOTHECIN [9]; 500 nM) was 0.24 ± 0.28. The surviving fraction (CAMPTOTHECIN [9]; 1000 nM) was 0.24 ± 0.28, the surviving fraction (CARBOPLATIN [10]; 0.5 nM) was 1.1 ± 0.072 and the surviving fraction (CARBOPLATIN [10]; 1 nM) was 0.999 ± 0.057. It also gave a surviving fraction (CARBOPLATIN [10]; 5 nM) of 1.03 ± 0.051, a surviving fraction (CARBOPLATIN [10]; 10 nM) of 1.02 ± 0.036 and a surviving fraction (CARBOPLATIN [10]; 50 nM) of 1.06 ± 0.093. For the same test system, the surviving fraction (CARBOPLATIN [10]; 100 nM) was 1.04 ± 0.12, the surviving fraction (CARBOPLATIN [10]; 500 nM) was 1.06 ± 0.068 and the surviving fraction (CARBOPLATIN [10]; 1000 nM) was 1.13 ± 0.17. It also gave a surviving fraction (GEFITINIB [11]; 0.5 nM) of 1 ± 0.023, a surviving fraction (GEFITINIB [11]; 1 nM) of 0.984 ± 0.18 and a surviving fraction (GEFITINIB [11]; 5 nM) of 0.979 ± 0.085. It also gave a surviving fraction (GEFITINIB [11]; 10 nM) of 1 ± 0.058, a surviving fraction (GEFITINIB [11]; 50 nM) of 0.987 ± 0.18 and a surviving fraction (GEFITINIB [11]; 100 nM) of 1.03 ± 0.15. The surviving fraction (GEFITINIB [11]; 500 nM) was 1.04 ± 0.17, the surviving fraction (GEFITINIB [11]; 1000 nM) was 1.03 ± 0.12 and the surviving fraction ([12]; 0.5 nM) was 1.05 ± 0.089. It also gave a surviving fraction ([12]; 1 nM) of 1.06 ± 0.032, a surviving fraction ([12]; 5 nM) of 1.04 ± 0.067 and a surviving fraction ([12]; 10 nM) of 1.048 ± 0.0085. The surviving fraction ([12]; 50 nM) was 1.09 ± 0.053, the surviving fraction ([12]; 100 nM) was 1.11 ± 0.08 and the surviving fraction ([12]; 500 nM) was 1.11 ± 0.071. The surviving fraction ([12]; 1000 nM) was 1.03 ± 0.027, the surviving fraction (YM155 [13]; 0.5 nM) was 1.12 ± 0.21 and the surviving fraction (YM155 [13]; 1 nM) was 1.05 ± 0.097. The surviving fraction (YM155 [13]; 5 nM) was 0.703 ± 0.16, the surviving fraction (YM155 [13]; 10 nM) was 0.679 ± 0.13 and the surviving fraction (YM155 [13]; 50 nM) was 0.151 ± 0.16. For the same test system, the surviving fraction (YM155 [13]; 100 nM) was 0.165 ± 0.23, the surviving fraction (YM155 [13]; 500 nM) was 0.101 ± 0.14 and the surviving fraction (YM155 [13]; 1000 nM) was 0.121 ± 0.16. It also gave a surviving fraction (CELECOXIB; 0.5 nM) of 1.02 ± 0.059, a surviving fraction (CELECOXIB; 1 nM) of 1.06 ± 0.082 and a surviving fraction (CELECOXIB; 5 nM) of 0.996 ± 0.088. It also gave a surviving fraction (CELECOXIB; 10 nM) of 1.03 ± 0.025, a surviving fraction (CELECOXIB; 50 nM) of 0.956 ± 0.17 and a surviving fraction (CELECOXIB; 100 nM) of 1.01 ± 0.16. For the same test system, the surviving fraction (CELECOXIB; 500 nM) was 1.02 ± 0.12, the surviving fraction (CELECOXIB; 1000 nM) was 1.06 ± 0.035 and the surviving fraction ([14]; 0.5 nM) was 0.97 ± 0.066. It also gave a surviving fraction ([14]; 1 nM) of 0.996 ± 0.047, a surviving fraction ([14]; 5 nM) of 0.937 ± 0.029 and a surviving fraction ([14]; 10 nM) of 0.95 ± 0.03. It also gave a surviving fraction ([14]; 50 nM) of 0.587 ± 0.021, a surviving fraction ([14]; 100 nM) of 0.678 ± 0.026 and a surviving fraction ([14]; 500 nM) of 0.625 ± 0.059. The surviving fraction ([14]; 1000 nM) was 0.56 ± 0.066, the surviving fraction (PACLITAXEL [15]; 0.5 nM) was 1.02 ± 0.057 and the surviving fraction (PACLITAXEL [15]; 1 nM) was 1.04 ± 0.066. It also gave a surviving fraction (PACLITAXEL [15]; 5 nM) of 0.121 ± 0.018, a surviving fraction (PACLITAXEL [15]; 10 nM) of 0.0847 ± 0.0021 and a surviving fraction (PACLITAXEL [15]; 50 nM) of 0.0603 ± 0.0061. The surviving fraction (PACLITAXEL [15]; 100 nM) was 0.053 ± 0.0036, the surviving fraction (PACLITAXEL [15]; 500 nM) was 0.0467 ± 0.0057 and the surviving fraction (PACLITAXEL [15]; 1000 nM) was 0.0553 ± 0.0046. It also gave a surviving fraction (OSI-906 [16]; 0.5 nM) of 0.9557 ± 0.009, a surviving fraction (OSI-906 [16]; 1 nM) of 1 ± 0.097 and a surviving fraction (OSI-906 [16]; 5 nM) of 0.934 ± 0.11. For the same test system, the surviving fraction (OSI-906 [16]; 10 nM) was 1.01 ± 0.18, the surviving fraction (OSI-906 [16]; 50 nM) was 0.902 ± 0.049 and the surviving fraction (OSI-906 [16]; 100 nM) was 0.928 ± 0.077. For the same test system, the surviving fraction (OSI-906 [16]; 500 nM) was 0.911 ± 0.14 and the surviving fraction (OSI-906 [16]; 1000 nM) was 0.803 ± 0.11.
